Source: US6214859A, “Ethylamine derivatives” (Fujimoto Brothers Co., Ltd., priority 1997, dated 2001)

Key:
[1] = test system: rats reduced learning ability by tetrabenazine; experiment: Conditioned avoidance task in the shuttle box (tetrabenazine-treated rats); assay type: in vivo, rat; details: tetrabenazine 1 mg/kg s.c., significance and direction
Method: The method described in Life Sci., 58, 817-827 (1996) was used. The effects on conditioned avoidance reflex (CARs) was analyzed in the shuttle box using male and female rats (weighing 200-220 g) whose leaning abilities were reduced by treatment of tetrabenazine. The instrument was constructed, according to the device described in Psychopharmacologia 10, 1-5 (1966) by the Research Institute for Electrical Industry (Budapest, Hungary). The male and female rats (weighing 200-220 g) were trained to cross the berrier under the influence of a conditioned stimulus (CS) (light flash and buzzer sounds). […] And the performance which was not related to this condition was noted as an intersignal reaction (IR). The rats were trained with 100 trials per day for 5 days. One trial consisted of 15 sec intertrial interval. The saline solution of tetrabenazine was administered at a dose of 1 mg/kg subcutaneously before one hour prior to the test and then the solution of the compounds of this invention were administered at the doses of 1, 2, 2.5 and 5 mg/kg subcutaneously with the simultaneous administration of tetrabenazine. The nmbers of CARs, EFs and IRs were automatically counted and evaluated by multi-way analysis of variance (ANOVA).

[2] = test system: dopamine release, striatum; experiment: Release of biogenic amines from brain tissue: dopamine, striatum; assay type: in vivo, Wistar rats; details: 0.01 mg/kg s.c.
Method: (§1) The method described in Life Sci., 56, 611-620 (1995) was used. After Wistar rats were decapitated, appropriate brain samples, which were striatun, substantia nigra, tuberculum olfactorium, locus coeruleus and raphe, were removed quickly and soaked in oxygenated (95% O2 and 5% CO2) Krebs solution at 37° C. The composition of Krebs solution was as follows in […]: NaCl 111, KCl 4.7, CaCl2 2.5, MgSO4 1.64, NaHCO3 25, KH2 PO4 1.2, glucose 11, 50 mg/l ascorbic add and 20 mg/l EDTA-2 Na. The preparations, soaked in one organ bath, were as follows: 1) four pieces of striatum (each halved), 2) four pieces of substantia nigra, 3) four pieces of tuberculum olfactorium; 4) eight pieces of locus coeruleus; 5) eight pieces of raphe. After incubation of the appropriate tissue for 20 min, the Krebs solution was replaced, the tissue soaked for 20 min in Krebs solution dissolving the compounds of this invention and the amount of biogenic amine released during this period of time was estimate. The compounds of this invention and PPAP, control compound, were dissolved in saline and were administered subcutaneously before 30 min to removing brain sample. For measuring noradrenaline and dopamine, samples were purified on 60 mg alumina containing micro columns (BDH Chemicals Ltd.) according to the method described in J. Pharmacol. Exp. Ther., 138, 360-372 (1962) For measuring serotonin, samples were purified on 15 mg Sephadex G-10 micro columns (Pharmacia). Dopamine, noradrenaline and serotonin were determined by high performance liquid chromatography (Waters 746 data module) with electrochemical detection (Waters 460 electrochemical detector). Waters Resolve 5μ Spherical C18 3.9×150 mm column was used as separating column and triethylamine-phosphate buffer (pH 5.2), containing 200 mg/l octane sulfonate sodium and 18 mg/l EDTA-2 Na with 6% acetonitrile, was used as mobile phase. The release amount of appropriate amine was noted as nmol/g tissue released for 20 min. deference of means tested by Student's t-test and significant level was set at P<.05.

[3] = test system: dopamine release, substantia nigra; experiment: Release of biogenic amines from brain tissue: dopamine, substantia nigra; assay type: in vivo, Wistar rats; details: 0.01 mg/kg s.c.
Method: as §1

[4] = test system: dopamine release, tuberculum olfactorium; experiment: Release of biogenic amines from brain tissue: dopamine, tuberculum olfactorium; assay type: in vivo, Wistar rats; details: 0.01 mg/kg s.c.
Method: as §1

[5] = test system: noradrenaline release, locus coeruleus; experiment: Release of biogenic amines from brain tissue: noradrenaline, locus coeruleus; assay type: in vivo, Wistar rats; details: 0.01 mg/kg s.c.
Method: as §1

serotonin release, raphe = experiment: Release of biogenic amines from brain tissue: serotonin, raphe; assay type: in vivo, Wistar rats; details: 0.01 mg/kg s.c.
Method: as §1

SMILES | Condition Avoidance Reflex (CARs) ([1]; 0.5 mg/kg s.c.) | Condition Avoidance Reflex (CARs) ([1]; 1 mg/kg s.c.) | Condition Avoidance Reflex (CARs) ([1]; 5 mg/kg s.c.) | Escape Failures (EFs) ([1]; 5 mg/kg s.c.) | Release of dopamine, striatum [2] | Release of dopamine, substantia nigra [3] | Release of dopamine, tuberculum olfactorium [4] | Release of noradrenaline, locus coeruleus [5] | Release of serotonin, raphe (serotonin release, raphe) | Escape Failures (EFs) ([1]; 1 mg/kg s.c.) | Condition Avoidance Reflex (CARs) ([1]; 2.5 mg/kg s.c.) | Intersignal Reactions (IRs) ([1]; 2.5 mg/kg s.c.) | Escape Failures (EFs) ([1]; 2.5 mg/kg s.c.)
CCCNC(CCC)Cc1ccc2cc[nH]c2c1.Cl (stereo not shown) [compound 22, 1-(Indol-6-yl)-2-propylaminopentane Hydrochloride] | * .Arrow-up bold. | *** .Arrow-up bold. | **** .Arrow-up bold. | * .dwnarw. | 6.5 ± 0.06 nmol/g tissue, for 20 min | 11.9 ± 0.39 nmol/g tissue, for 20 min | 9.7 ± 0.17 nmol/g tissue, for 20 min | 4.8 ± 0.05 nmol/g tissue, for 20 min | 0.322 ± 0.01 nmol/g tissue, for 20 min | – | – | – | –
CCCNC(CCC)Cc1cc2ccccc2s1.Cl (stereo not shown) [compound 38, 1-(2-Benzothienyl)-2-propylaminopentane Hydrochloride] | – | – | – | – | 7.9 ± 0.19 nmol/g tissue, for 20 min | 14.0 ± 0.23 nmol/g tissue, for 20 min | 11.5 ± 0.14 nmol/g tissue, for 20 min | 3.6 ± 0.05 nmol/g tissue, for 20 min | 0.375 ± 0.02 nmol/g tissue, for 20 min | **** .dwnarw. | **** .Arrow-up bold. | * .Arrow-up bold. | –
CCCNC(CCC)Cc1csc2ccccc12.Cl (stereo not shown) [compound 39, 1-(3-Benzothienyl)-2-propylaminopentane Hydrochloride] | – | – | – | – | 7.1 ± 0.15 nmol/g tissue, for 20 min | 12.0 ± 0.34 nmol/g tissue, for 20 min | 10.9 ± 0.25 nmol/g tissue, for 20 min | 4.1 ± 0.15 nmol/g tissue, for 20 min | 0.256 ± 0.01 nmol/g tissue, for 20 min | *** .dwnarw. | **** .Arrow-up bold. | – | **** .dwnarw.
